Test results taken from PubChem BioAssay (NCI).
Values joined by “and” are separate entries in the source; they are usually repeats but may differ in a detail not shown here. Equal entries are not always repeated.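 Following 48 hours of exposure in 96-well plates, responses at five concentrations were used to interpolate endpoints linearly. GI50: concentration for 50% inhibition of growth. TGI marks complete inhibition of growth.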

What was measured:
Assay in all cases: NCI tumour cell line growth inhibition, 48 h
OVCAR-3 ovarian = system: OVCAR-3 ovarian
EKVX NSCLC = system: EKVX NSCLC
K-562 leukemia = system: K-562 leukemia
SK-OV-3 ovarian = system: SK-OV-3 ovarian
HOP-92 NSCLC = system: HOP-92 NSCLC
TK-10 renal = system: TK-10 renal
SNB-19 CNS = system: SNB-19 CNS
SK-MEL-5 melanoma = system: SK-MEL-5 melanoma
OVCAR-8 ovarian = system: OVCAR-8 ovarian
NCI-H522 lung = system: NCI-H522 lung

Row | Compound | GI50 (OVCAR-3 ovarian) | TGI (OVCAR-3 ovarian) | GI50 (EKVX NSCLC) | TGI (EKVX NSCLC) | GI50 (K-562 leukemia) | TGI (K-562 leukemia) | GI50 (SK-OV-3 ovarian) | TGI (SK-OV-3 ovarian) | GI50 (HOP-92 NSCLC) | TGI (HOP-92 NSCLC) | GI50 (TK-10 renal) | TGI (TK-10 renal) | GI50 (SNB-19 CNS) | TGI (SNB-19 CNS) | GI50 (SK-MEL-5 melanoma) | TGI (SK-MEL-5 melanoma) | GI50 (OVCAR-8 ovarian) | TGI (OVCAR-8 ovarian) | GI50 (NCI-H522 lung) | TGI (NCI-H522 lung)
1 | CN1C(NC(=O)c2ccc(Cl)nc2)=NS(=O)(=O)c2cc(Cl)ccc21 | > 100 µM | > 100 µM | > 100 µM | > 100 µM | > 100 µM | > 100 µM | > 100 µM | > 100 µM | > 100 µM | > 100 µM | > 100 µM | > 100 µM | > 100 µM | > 100 µM | > 100 µM | > 100 µM | > 100 µM | > 100 µM | > 100 µM | > 100 µM
2 | CCCNC(=S)N/N=C(\C)c1ccccn1 | < 0.01 µM | > 100 µM | 0.119 µM | > 100 µM | 0.0153 µM | > 100 µM | 0.615 µM | > 100 µM | 0.115 µM | > 100 µM | 0.71 µM | > 100 µM | 1.81 µM | > 100 µM | 0.213 µM | 2.55 µM | 0.0667 µM | > 100 µM | 3.22 µM | > 100 µM
3 | NC1C2(CCCCCC2)NC(=O)C12CCCCCC2 (stereo unspecified) | – | > 100 µM | – | > 100 µM | – | > 100 µM | – | > 100 µM | – | > 100 µM | – | > 100 µM | – | > 100 µM | – | > 100 µM | – | > 100 µM | – | > 100 µM
4 | COC(=O)C(=O)C(C(=O)C=C(C)C)C(=O)C(=O)Nc1ccc(Cl)cc1C (stereo unspecified) | – | > 100 µM | – | > 100 µM | – | > 100 µM | – | > 100 µM | – | > 100 µM | – | > 100 µM | – | > 100 µM | – | > 100 µM | – | > 100 µM | – | > 100 µM
5 | O=C(O)C(Sc1ccc(Cl)cc1)Sc1ccc(Cl)cc1 | – | 82.6 µM | – | > 100 µM | – | > 100 µM | – | > 100 µM | – | 68.2 µM | – | > 100 µM | – | > 100 µM | – | > 100 µM | – | > 100 µM | – | > 100 µM
6 | O=[N+]([O-])c1ccc2nnnn2c1 | – | 35.2 µM | – | > 100 µM | – | > 100 µM | – | > 100 µM | – | > 100 µM | – | > 100 µM | – | > 100 µM | – | 41.4 µM | – | > 100 µM | – | 13.2 µM
7 | CC(C)(C)C1=CC(=CC=C2C=CN(CCCCCCCCCCCO)C=C2)C=C(C(C)(C)C)C1=O | – | 2.87 µM | – | 5.61 µM | – | 4.87 µM | – | 5.81 µM | – | 6.16 µM | – | 3.67 µM | – | 3.15 µM | – | 3.31 µM | – | 2.1 µM | – | 1.29 µM
8 | CC(=O)NC(CCCN)C(=O)NCc1ccccc1 (stereo unspecified) | – | > 100 µM | – | > 100 µM | – | > 100 µM | – | > 100 µM | – | > 100 µM | – | > 100 µM | – | > 100 µM | – | > 100 µM | – | > 100 µM | – | > 100 µM
9 | Nc1nccc(-c2c(-c3ccc(F)cc3)ncn2CCCN2CCOCC2)n1 | > 25 µM | > 25 µM | > 25 µM | > 25 µM | > 25 µM | > 25 µM | > 25 µM | > 25 µM | > 21.7 µM | > 25 µM | > 25 µM | > 25 µM | > 25 µM | > 25 µM | > 25 µM | > 25 µM | > 25 µM | > 25 µM | > 25 µM | > 25 µM
10 | O=C(NC1CCCCCC1)C1C(=O)N(C2CCCCCC2)C(=O)/C1=N\O (stereo unspecified) | – | 37.6 µM | – | > 100 µM | – | > 100 µM | – | > 100 µM | – | 46.1 µM | – | 94.3 µM | – | > 100 µM | – | > 100 µM | – | > 100 µM | – | 45 µM
11 | COc1cc2c(/C=C3/C(=O)Nc4cccc(Cl)c43)c(Cl)n(Cc3ccccc3)c2cc1C | 8.84 µM | 25.2 µM | 6.84 µM | > 26.4 µM | 5.22 µM | > 100 µM | 7.24 µM | > 74.8 µM | 44.9 µM | > 100 µM | 10.4 µM | > 76.2 µM | 9.07 µM | > 100 µM | 2.17 µM | 11.5 µM | 5.21 µM | > 71.9 µM | 4.46 µM | > 82.2 µM
12 | COc1ccc(/C(=N/Nc2ccc([N+](=O)[O-])cc2)Sc2cc(Cl)c(C)cc2S(N)(=O)=O)cc1 | 2.52 µM | 7.4 µM | 3.34 µM | 10.9 µM | 4.67 µM | 15.4 µM | 5.89 µM | 12.7 µM | 2.47 µM | 8.01 µM | 2.47 µM | 6.73 µM | 7.06 µM | 20.3 µM | 0.706 µM | 7.43 µM | 7.28 µM | > 57 µM | 13.1 µM | 38.1 µM
13 | CCOC(=O)c1c(C)n(Cc2ccc(OC)cc2)c2c1cc(O)c1[nH]c3c(c12)CCCC3 | 3.73 µM | 18.6 µM | 4.9 µM | 52.5 µM | 5.22 µM | > 100 µM | 9.47 µM | 51.3 µM | 2.5 µM | 55.4 µM | 12.5 µM | 52.9 µM | 4.84 µM | 65.2 µM | 1.74 µM | 3.24 µM | 3.05 µM | 10.9 µM | 1.75 µM | 3.97 µM
14 | COC(=O)c1cc2c(c(C(=O)OC)c1O)C(=O)C=CC2=O | > 9.1 µM | > 60.9 µM | > 9.1 µM | > 41.4 µM | – | > 22.7 µM | > 9.1 µM | > 100 µM | – | > 21.9 µM | > 9.1 µM | > 54.6 µM | > 9.1 µM | > 60.7 µM | > 9.1 µM | > 55.1 µM | > 9.1 µM | > 40.4 µM | 3.01 µM | 9.1 µM and > 26.9 µM
15 | COc1ccc(-n2cc(-c3cc(OC)c(OC)c(OC)c3)[nH]c2=S)cc1OC | > 100 µM | > 100 µM | > 100 µM | > 100 µM | > 100 µM | > 100 µM | > 100 µM | > 100 µM | > 100 µM | > 100 µM | > 100 µM | > 100 µM | > 100 µM | > 100 µM | > 100 µM | > 100 µM | > 100 µM | > 100 µM | > 100 µM | > 100 µM
16 | NCCCCn1c2c(c3ccccc3c1=O)C(=O)c1ccccc1-2 | 0.502 µM | 4.22 µM | 1.21 µM | 4.62 µM | 0.168 µM | – | 1.04 µM | 9.81 µM | 0.0363 µM | 0.535 µM | 0.226 µM | 1.25 µM | 0.389 µM | 12.2 µM | 0.153 µM | 1.25 µM | 0.0902 µM | 0.625 µM | 0.424 µM | 2.31 µM
17 | Cc1ccc(C(=O)/C=C/c2ccccc2O)c(C)c1 | – | > 100 µM | – | > 100 µM | – | > 100 µM | – | > 100 µM | – | > 100 µM | – | > 100 µM | – | > 100 µM | – | > 100 µM | – | > 100 µM | – | > 100 µM
18 | CNC1C(=O)C(C)C(O)(C(CC(C)C(O)/C=C/C=C/CNC(=O)C(C)(C)C(O)\C(C)=C/C=C\C=C\Cc2cnc(C)o2)OC)C12C(=O)OC2COC (stereo unspecified) (tested in a mixture with another compound) | – | 34.6 µM | – | > 64.4 µM | – | 5.42 µM | – | > 100 µM | – | > 51.3 µM | – | > 100 µM | – | > 85.9 µM | – | 18.4 µM | – | > 100 µM | – | 21.2 µM
19 | CC[C@H](C)[C@H](NC(=O)[C@H]1CCCCN1C)C(=O)N(C)[C@H](CCc1nc(C(=O)N[C@@H](Cc2ccccc2)C[C@H](C)C(=O)OC)cs1)C(C)C | 0.0867 µM | – | 1.11 µM | > 25 µM | 0.121 µM | > 25 µM | 0.797 µM | > 25 µM | 0.292 µM | 8.33 µM | 7.35 µM | > 25 µM | 0.151 µM | > 25 µM | 0.0745 µM | 1.02 µM | 0.717 µM | > 25 µM | 0.0446 µM | 0.143 µM
20 | COc1cc(Cc2cc(OC)c(OC)c(OC)c2)ccc1O | – | 52.4 µM | – | > 100 µM | – | > 100 µM | – | > 100 µM | – | > 100 µM | – | > 100 µM | – | > 100 µM | – | > 100 µM | – | > 100 µM | – | 39.5 µM
21 | COc1cc2c3c(n(CCCBr)c(=O)c2cc1OC)-c1ccc(NC(C)=O)cc1C3=O | 4.37 µM | 24.9 µM | 47.8 µM | > 100 µM | 3.84 µM | 28.3 µM | 2.28 µM | 10.6 µM | 73.4 µM | > 100 µM | 19.7 µM | > 100 µM | 3.19 µM | > 100 µM | 2.45 µM | 13.7 µM | 18.7 µM | > 100 µM | 12.4 µM | > 100 µM
